From patent publication US20150272959A1, “SMALL MOLECULES AS ANTI-HIV AGENTS THAT DISRUPT VIF SELF-ASSOCIATION AND METHODS OF USE THEREOF” (OYAGEN, INC., priority 2012, published 2015)
“And” between values parts separate entries of the source, which are not always exact repeats. Equal values may be shown once. Read-outs that look alike come from different tables or passages of the source.

Legend:
[1] = test system: Vif-dependent A3G degradation; assay: Vif-dependent A3G-mCherry degradation assay in 293T cells; format: cell-based; conditions: single dose 8 μM
Protocol: A3G-mCherry is stably expressed in 293T cells under puromycin selection. 50 ng of Vif was transiently transfected into the cells in 384-well format with Turbofect. 4 hours after transfection the chemistries were added to cells in a range from (0.5-16 μM). 24 hours after chemistries were added the mCherry signal was read on a Biotek Synergy 4 plate reader. The signal from cells plated but not transfected with Vif was averaged and set at 100% (left image), and cells transfected with Vif and treated with DMSO only were averaged and set at 0% (right image). A chemistry that inhibits Vif's ability to chaperone A3G to the proteasomal degradation pathway would result in an increased mCherry signal compared to the DMSO only control, and any signal that is much higher than the no Vif positive control is likely to be due to autofluorescence from the chemistry itself.
To simplify the numbering the compounds were numbered from 1 to 32 in the same order as plated in the original vials and listed on the original Dry Powder list sent with the vials by the Broad. […] The first compound is 02-16, which is the lead from the previous OyaGen screen mentioned above with strong A3G dependency in live virus tests and the last data set are the DMSO controls that were averaged out to set the 0% mark. […]

CEMSS (-A3G) cells = format: cell-based
Excerpt: (§1) All the screens to this point utilized 293T cells and the Brd. […] The rationale is to set a CC50 standard in T cells to measure against for medicinal chemistry derived compounds created from these scaffolds going forward. CEMSS (−A3G) and A3.01 (+A3G) were selected, because they are both CEM derived T cell lines that can be used to compare in live virus spreading infections for A3G-dependency.

A3.01 (+A3G) cells = format: cell-based
Excerpt: as §1

pseudotyped HIV = format: cell-based; conditions: for efficacy: all concentrations tested below 15 μM; for toxicity: concentrations higher than 15 μM
Excerpt: This figure is a visual representation of how the single cycle infectivity experiments were done. They are in 6 well format in order to obtain enough virus to do viral particle purifications for western blot detection of A3G in the viral particle. […] The wild type HIV proviral vector codes for all HIV genes except nef (replaced with EGFP) and env. […] Alternatively, in the absence of A3G, both wild type and ΔVif viruses should have high infectivity.
[…]. Viral load was then normalized with a p24 ELISA (Perkin Elmer).
The infections utilized TZM-bl reporter cells that contain stably integrated luciferase that is driven by the HIV-LTR promoter, therefore luciferase is expressed upon successful HIV infection. Triplicate infections in 96-well plates at 10,000 cells/well with 500 pg p24/well proceeded for 48 hours before the addition of SteadyGlo™ Reagent (Promega) to each well for 30 minutes. Luminescence was measured as a quantitative metric for changes in infectivity with each compound as compared to controls, in which relative luminescence units (RLU) with no chemistry are set to 100%.
This figure is intended to highlight where in the experimental method negative results occurred. Although all compounds to this point in screening have shown little to no toxicity in the Primary and Secondary Screens, when cells are challenged with viral production they are more sensitive to toxicity from chemistries since cells have to combat viral proteins overtaking of cellular pathways and any adverse effects from the chemistries. […] If the producer cells are healthy and make enough virus for infectivity testing there are three possible outcomes and two are undesirable for any chemistry to go forward into probe development. […] This is best represented as a differential between infectivity in the presence of Vif and A3G vs the absence of Vif and A3G.
Each compound was tested at multiple concentrations in separate infectivity assays. The concentrations are listed on the top, followed by the infectivity in relation to the no chemistry control for both + and −Vif and A3G conditions, and the large number on the bottom is the differential between infectivity of +Vif virus and with A3G cotransfected compared to −Vif virus without A3G (purple numbers are for good values and blue numbers are for weak values). […] For compound 9 although the drop in infectivity compared to the no chemistries controls are not as low as for compounds 21 and 24 for +Vif and A3G infectivities, there is an increase in the −Vif and A3G infectivities compared to control making the differential between the +/−Vif and A3G virus lower than 24 and 21 at 0.33 and 0.44 in Dry Powder Infectivities B&C. Note that normalization for the viral load with p24 only accounts for total viral particles in the media, but is unable to discriminate between mature and immature virions. If a chemistry has an effect on % of mature virions compared to the no chemistry control there could be an impact on viral infectivity values compared to control. Therefore, although it is crucial to see lower infectivity than the no chemistry control the more critical number is the differential between +/−Vif and A3G, because both those virial preps contain the chemistry and would have similar effects on the viral populations going into the infectivity assay. On the other hand, compound 21 has +Vif and A3G infectivity at 56% at 15 μM but the −Vif and A3G infectivity is only at 63% making the differential only 0.88.

[2] = test system: A3G in the viral particle; assay: A3G in the viral particle, western blot A3G:p24 ratio (FIG. 18); format: cell-based, HIV; conditions: for increase of A3G:p24 ratio over the negative control: parallel to Dry Powder Infectivities B & C, 30 ng p24
Protocol: Parallel to Dry Powder Infectivities B & C, viral particles (30 ng p24) were pelleted through a 20% sucrose cushion, resolved by SDS-PAGE and western blotted for VS-tagged A3G and p24. The yield of A3G relative to p24 (as a virus loading control) was quantified by scanning densitometry to validate the antiviral mechanism. The first two lanes are the −Vif virus with A3G (positive control) and the +Vif virus with A3G (negative control). The A3G:p24 Ratio for the negative control was set to 1 (Ratios listed under the westerns). Chemistry 24 had 5 and 15 fold increases over the negative control. On the other hand, chemistry 9 had increases of 55 and 76-fold over the control, both higher than the positive control at 48-fold above the negative control. However, the positive control has lower overall infectivity and differentials than 9.

[3] = 15 μM, relative to no chemistry control

Cc1nnc2ccc(-c3cccc(NS(=O)(=O)c4cc(F)ccc4F)c3)nn12 [Compound 9]
DMSO stock test [1]: low | CC50 (CEMSS (-A3G) cells): > 25 µM | CC50 (A3.01 (+A3G) cells): > 25 µM | +/-Vif and A3G differential (in words) (pseudotyped HIV): differential between +/−Vif and A3G infectivities | -Vif and A3G infectivities compared to control (pseudotyped HIV): increase | antiviral activity (pseudotyped HIV): antiviral activity | differential between +/-Vif and A3G virus infectivity (pseudotyped HIV; Dry Powder Infectivity B): 0.33 | differential between +/-Vif and A3G virus infectivity (pseudotyped HIV; Dry Powder Infectivity C): 0.44 | efficacy (pseudotyped HIV): displayed efficacy | toxicity (pseudotyped HIV): slight toxicity | A3G in the viral particles (in words) [2]: increase in A3G | increase of A3G:p24 ratio over the negative control [2]: 55 fold and 76 fold

O=C(NC1(C(F)(F)F)Oc2ccc(Cl)cc2O1)N1CCC2(CC1)OCCO2 (stereo not shown) [Compound 21]
CC50 (CEMSS (-A3G) cells): > 25 µM | CC50 (A3.01 (+A3G) cells): > 25 µM | +/-Vif and A3G differential (in words) (pseudotyped HIV): differential between +/−Vif and A3G infectivities | antiviral activity (pseudotyped HIV): antiviral activity | differential between +/-Vif and A3G infectivity (pseudotyped HIV; 15 μM): 0.88 | +Vif and A3G infectivity (pseudotyped HIV; [3]): 56% | -Vif and A3G infectivity (pseudotyped HIV; [3]): 63% | toxic effects (pseudotyped HIV; above 30 μM): no toxic effects | differential between +/-Vif and A3G infectivity (pseudotyped HIV; above 30 μM, Dry Powder infectivity A): 0.65 | differential between +/-Vif and A3G infectivity (pseudotyped HIV; above 30 μM, Dry Powder infectivity C): 0.57 | A3G in the viral particles (in words) [2]: increase in A3G | increase of A3G:p24 ratio over the negative control [2]: 4 fold and 5 fold

FC(F)(F)c1nnc2c3ccccc3c(Cl)nn12 [Compound 24]
CC50 (CEMSS (-A3G) cells): 9.7 µM | CC50 (A3.01 (+A3G) cells): 4.9 µM | +/-Vif and A3G differential (in words) (pseudotyped HIV): differential between +/−Vif and A3G infectivities | antiviral activity (pseudotyped HIV): antiviral activity | efficacy (pseudotyped HIV): displayed efficacy | toxicity (pseudotyped HIV): slight toxicity | A3G in the viral particles (in words) [2]: increase in A3G
